The text below walks through data of patent US11254700B2, “GSK-3β inhibitors and use thereof in methods of treatment” (UNIVERSITY OF HAWAII, priority 2017, dated 2022).

The target of the first test is GSK-3β (Homo sapiens, UniProt P49841). Kind of test: Kinase luminescent assay (ADP-Glo), GSK-3β inhibition. Conditions: 25 μM ATP, 1 hour, room temperature; mean of quadruplicate of two experiments; read-out: IC50 against GSK-3β. It counts as biochemical. As for the experimental part: Kinase Luminescent Assay.
Chain of GSK-3β (P49841 whole entry): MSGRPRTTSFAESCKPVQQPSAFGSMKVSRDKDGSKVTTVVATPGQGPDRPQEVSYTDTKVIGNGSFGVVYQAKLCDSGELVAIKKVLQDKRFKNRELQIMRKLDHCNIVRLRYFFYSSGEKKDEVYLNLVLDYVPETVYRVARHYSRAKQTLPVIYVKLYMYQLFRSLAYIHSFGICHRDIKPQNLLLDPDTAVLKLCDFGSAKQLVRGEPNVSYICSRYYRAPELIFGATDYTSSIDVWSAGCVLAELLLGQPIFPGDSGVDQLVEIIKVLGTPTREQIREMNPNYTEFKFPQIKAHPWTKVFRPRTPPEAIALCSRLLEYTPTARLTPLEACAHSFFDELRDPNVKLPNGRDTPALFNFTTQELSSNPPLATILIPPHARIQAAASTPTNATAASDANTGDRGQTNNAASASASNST
Kinase inhibition was assessed with the ADP-Glo Kinase Assay. […] The reaction mixture was incubated for 1 hour at room temperature followed by the addition of the ADP-Glo′ reagents according to the manufacturer's protocol. The kinase inhibitor staurosporine was used at 1 μM as a reference control. Each data point was collected in quadruplicate of two independent experiments.
Regarding `O=c1cc(-c2ccc(O)c(O)c2)oc2c([C@@H]3O[C@H](CO)[C@@H](O)[C@H](O)[C@H]3O)c(O)cc(O)c12` [Compound 3, orientin, reference compound], the IC50 was found to be 5153 ± 31 µM. `COc1ccc(-c2cc(=O)c3c(OC)c([C@@H]4O[C@H](CO)[C@@H](O)[C@H](O)[C@H]4O)c(OC)cc3o2)cc1OC` [Compound 5, 2-(3,4-Dimethoxyphenyl)-5,7-dimethoxy-6-((2S,3R,4R,5S,6R)-3,4,5-trihydroxy-6-(hydroxymethyl)tetrahydro-2H-pyran-2-yl)-4H-chromen-4-one]: the IC50 amounted to 239.2 ± 1.2 µM. In the case of `COc1ccc(-c2cc(=O)c3c(OC)c([C@@H]4O[C@H](C(=O)O)[C@@H](O)[C@H](O)[C@H]4O)c(OC)cc3o2)cc1OC` [Compound 6, (2S,3S,4R,5R,6S)-6-(2-(3,4-Dimethoxyphenyl)-5,7-dimethoxy-4-oxo-4H-chromen-6-yl)-3,4,5-trihydroxytetrahydro-2H-pyran-2-carboxylic acid], the IC50 was 237.3 ± 1.4 µM.

Consider `COC(=O)[C@H]1O[C@@H](c2c(OC)cc3oc(-c4ccc(OC)c(OC)c4)cc(=O)c3c2OC)[C@H](O)[C@@H](O)[C@@H]1O` [Compound 7, Methyl (2S,3S,4R,5R,6S)-6-(2-(3,4-dimethoxyphenyl)-5,7-dimethoxy-4-oxo-4H-chromen-6-yl)-3,4,5-trihydroxytetrahydro-2H-pyran-2-carboxylate], for which the IC50 is 135 µM.

`CCCNC(=O)[C@H]1O[C@@H](c2c(OC)cc3oc(-c4ccc(OC)c(OC)c4)cc(=O)c3c2OC)[C@H](O)[C@@H](O)[C@@H]1O` [Compound 8, (2S,3S,4R,5R,6S)-6-(2-(3,4-Dimethoxyphenyl)-5,7-dimethoxy-4-oxo-4H-chromen-6-yl)-3,4,5-trihydroxy-N-propyltetrahydro-2H-pyran-2-carboxamide]: the half-maximal inhibitory concentration (IC50) stood at 29.2 ± 1.1 µM.

Regarding `CCCCNC(=O)[C@H]1O[C@@H](c2c(OC)cc3oc(-c4ccc(OC)c(OC)c4)cc(=O)c3c2OC)[C@H](O)[C@@H](O)[C@@H]1O` [Compound 10, (2S,3S,4R,5R,6S)-6-(2-(3,4-Dimethoxyphenyl)-5,7-dimethoxy-4-oxo-4H-chromen-6-yl)-3,4,5-trihydroxy-N-butyltetrahydro-2H-pyran-2-carboxamide], the IC50 was found to be 33.3 ± 1.1 µM. As for `COc1ccc(-c2cc(=O)c3c(OC)c([C@@H]4O[C@H](C(=O)NCC(C)C)[C@@H](O)[C@H](O)[C@H]4O)c(OC)cc3o2)cc1OC` [Compound 11, (2S,3S,4R,5R,6S)-6-(2-(3,4-Dimethoxyphenyl)-5,7-dimethoxy-4-oxo-4H-chromen-6-yl)-3,4,5-trihydroxy-N-isobutyltetrahydro-2H-pyran-2-carboxamide], the IC50 came to 31.1 ± 1.2 µM. Consider `CCCCCNC(=O)[C@H]1O[C@@H](c2c(OC)cc3oc(-c4ccc(OC)c(OC)c4)cc(=O)c3c2OC)[C@H](O)[C@@H](O)[C@@H]1O` [Compound 12, (2S,3S,4R,5R,6S)-6-(2-(3,4-Dimethoxyphenyl)-5,7-dimethoxy-4-oxo-4H-chromen-6-yl)-3,4,5-trihydroxy-N-pentyltetrahydro-2H-pyran-2-carboxamide], for which the IC50 was 28 ± 1.1 µM. Regarding `CCCCCCNC(=O)[C@H]1O[C@@H](c2c(OC)cc3oc(-c4ccc(OC)c(OC)c4)cc(=O)c3c2OC)[C@H](O)[C@@H](O)[C@@H]1O` [Compound 13, (2S,3S,4R,5R,6S)-6-(2-(3,4-Dimethoxyphenyl)-5,7-dimethoxy-4-oxo-4H-chromen-6-yl)-3,4,5-trihydroxy-N-hexyltetrahydro-2H-pyran-2-carboxamide], the IC50 amounted to 9.4 ± 0.9 µM. Consider `COc1ccc(-c2cc(=O)c3c(OC)c([C@@H]4O[C@H](C(=O)NC5CC5)[C@@H](O)[C@H](O)[C@H]4O)c(OC)cc3o2)cc1OC` [Compound 14, (2S,3S,4R,5R,6S)—N-Cyclopropyl-6-(2-(3,4-dimethoxyphenyl)-5,7-dimethoxy-4-oxo-4H-chromen-6-yl)-3,4,5-trihydroxytetrahydro-2H-pyran-2-carboxamide], for which the IC50 turned out to be 25.8 ± 1.1 µM.

The same test, now with this note: vs isoorientin 1.
In the case of `COC(=O)[C@H]1O[C@@H](c2c(OC)cc3oc(-c4ccc(OC)c(OC)c4)cc(=O)c3c2OC)[C@H](O)[C@@H](O)[C@@H]1O` [Compound 7, Methyl (2S,3S,4R,5R,6S)-6-(2-(3,4-dimethoxyphenyl)-5,7-dimethoxy-4-oxo-4H-chromen-6-yl)-3,4,5-trihydroxytetrahydro-2H-pyran-2-carboxylate], the “increase of potency against GSK-3β relative to 1” value is 1.37 fold.
